The record followed here is ChEMBL document CHEMBL3621202, “Suppression of Hepatocellular Carcinoma by Inhibition of Overexpressed Ornithine Aminotransferase” (ACS Med Chem Lett, 2015).

The subject of assay [1] is HepG2. Put plainly: Effect AFP secretion in human HepG2 cells by ELISA. The class given is functional, cell-based.
For another assay, the system named is Hepa1-6. In words: Effect AFP secretion in […] cells by ELISA. The class given is functional, cell-based. For orientation: An ELISA detects its analyte on a solid surface through an enzyme-linked reagent.
Assay [2] is described as follows: Antiproliferative activity against human Hep3B cells after 48 hrs by [3H]-thymidine incorporation assay. The class given is functional, Hep 3B2.
Assay [3] concerns Mus musculus. In words: Reduction in AFP secretion in Hep3B cells xenografted Balb/C mouse serum at 500 ug/kg, ip administered as single dose by ELISA. The format is functional, organism-based. The note with it: Hep 3B2.
Assay [4] is described as follows: Antiproliferative activity against […] cells after 48 hrs by [3H]-thymidine incorporation assay. The class given is functional. In general terms: Uptake of a labelled nucleoside into DNA is a usual measure of proliferation.
Assay [5] has as its system Hep 3B2. Put plainly: Effect AFP secretion in human Hep3B cells by ELISA. The class given is functional, cell-based.
The nature of assay [6]: Antitumor activity against human Hep3B cells xenografted in Balb/C mouse assessed as tumor size at 1 mg/kg, po administered 3 weeks after xenograft measured 28 days after treatment (reference value: 24.2). The class given is functional, Hep 3B2. (In general: In xenograft studies the graft and the host belong to different species.)
Assay [7] is described as follows: Antitumor activity against human Hep3B cells xenografted in Balb/C mouse assessed as tumor size at 0.1 mg/kg, po administered 3 weeks after xenograft measured 28 days after treatment (reference value: 24.2). The format is functional, Hep 3B2.
Assay [8] relates to Mus musculus. In words: Reduction in AFP secretion in Hep3B cells xenografted Balb/C mouse serum at 0.1 mg/kg, po administered 3 weeks after xenograft measured 21 days after treatment by ELISA. The format is functional, organism-based. The note with it: Hep 3B2.
Another assay is filed under the species Homo sapiens. Put plainly: Inhibition of alanine aminotransferase (unknown origin) at 4 mM using 5.55 mM L-alanine as substrate.
In assay [9] the test system is Mus musculus. In words: Reduction in AFP secretion in Hep3B cells xenografted Balb/C mouse serum at 1 mg/kg, po administered 3 weeks after xenograft measured 14 days after treatment by ELISA (reference value: 29155 pg/ml). The class given is functional, Hep 3B2.
For assay [10], the system named is Hep 3B2. In words: Decrease in AFP secretion in human Hep3B cells at 50 ug/ml by ELISA. The format is functional, cell-based.
The test system of assay [11] is Mus musculus. In words: Reduction in AFP secretion in Hep3B cells xenografted Balb/C mouse serum at 0.1 mg/kg, po administered 3 weeks after xenograft measured 14 days after treatment by ELISA (reference value: 29155 pg/ml). The class given is functional, Hep 3B2.
Assay [12] has as its target T1, Ornithine aminotransferase, mitochondrial (Homo sapiens, UniProt P04181).
T1 sequence (P04181 whole entry): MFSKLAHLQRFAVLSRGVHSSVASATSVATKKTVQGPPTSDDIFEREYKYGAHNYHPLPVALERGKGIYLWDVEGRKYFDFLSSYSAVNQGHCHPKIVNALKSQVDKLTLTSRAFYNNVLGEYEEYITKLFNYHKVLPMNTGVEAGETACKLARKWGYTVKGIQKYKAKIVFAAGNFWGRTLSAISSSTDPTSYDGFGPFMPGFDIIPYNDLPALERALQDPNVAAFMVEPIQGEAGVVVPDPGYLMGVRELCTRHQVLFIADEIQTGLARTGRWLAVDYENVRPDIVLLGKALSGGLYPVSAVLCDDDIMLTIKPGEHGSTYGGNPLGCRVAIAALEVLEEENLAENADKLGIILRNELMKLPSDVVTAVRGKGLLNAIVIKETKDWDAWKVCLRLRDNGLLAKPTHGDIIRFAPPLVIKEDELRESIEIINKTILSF
Put plainly: Inhibition of human recombinant OAT using 1 mM alpha-ketoglutarate as substrate.

Assay [13] deals with Mus musculus. In words: Reduction in AFP secretion in Hep3B cells xenografted Balb/C mouse serum at 1 mg/kg, po administered 3 weeks after xenograft measured 21 days after treatment by ELISA. The class given is functional, organism-based. The note with it: Hep 3B2.
Assay [14] deals with HepG2. Put plainly: Decrease in AFP secretion in human HepG2 cells at 50 ug/ml by ELISA. The format is functional, cell-based.
Assay [15] has as its target Aspartate aminotransferase, cytoplasmic (Homo sapiens) (UniProt P17174). Put plainly: Inhibition of aspartate aminotransferase (unknown origin) at 4 mM using 5.55 mM L-aspartate as substrate.

The source made the active and inactive calls. No cut-off for these calls is given here.

Chain of Aspartate aminotransferase, cytoplasmic (Homo sapiens) (P17174 whole entry): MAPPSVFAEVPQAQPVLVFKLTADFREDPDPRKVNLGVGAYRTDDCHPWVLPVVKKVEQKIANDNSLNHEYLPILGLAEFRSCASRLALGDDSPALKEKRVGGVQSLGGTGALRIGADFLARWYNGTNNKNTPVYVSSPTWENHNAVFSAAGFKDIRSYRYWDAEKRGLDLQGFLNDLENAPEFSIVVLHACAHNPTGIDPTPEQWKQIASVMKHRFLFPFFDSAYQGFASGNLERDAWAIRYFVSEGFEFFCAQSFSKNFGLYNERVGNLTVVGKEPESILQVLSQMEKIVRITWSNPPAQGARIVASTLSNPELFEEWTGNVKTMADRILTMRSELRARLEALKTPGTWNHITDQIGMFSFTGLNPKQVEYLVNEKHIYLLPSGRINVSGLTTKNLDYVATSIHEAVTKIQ

For the compound `N[C@H]1C=C(C(=O)O)CCC1` [GABACULINE], the result in the assay with HepG2 [1], with Hepa1-6 and in the assay on Hep 3B2 [5] was inactive. For the same compound, the “inhibition (INH)” value in assay [2] and in assay [4] was 43% each time. In the assay with Mus musculus [3], the inhibition result was “Active”.

As a reminder, the Ki is the equilibrium dissociation constant of an inhibitor or competing ligand from its target. Take `N[C@H]1C[C@@H](C(=O)O)CC1=C(C(F)(F)F)C(F)(F)F`: the “fold change (FC)” value is 3.1 in assay [6] and 4.5 in assay [7]. The inhibition entry in the assay on Mus musculus [8], in the assay on Hep 3B2 [10], in the assay on Mus musculus [13] and in the assay on HepG2 [14] was “Active” throughout. In addition, the inhibition entry (in the assay filed under Homo sapiens; in [15]) was “inactive” throughout. The Activity in the assay on Mus musculus [9] and in the assay with Mus musculus [11] was 24857 pg/mL throughout. The Ki in assay [12] was found to be 4.2 µM.

`NC1C=CC=C(C(=O)O)C1` (stereo not drawn) [GABACULINE]: the Ki in [12] was 2.1 µM.
